Data set [1] concerns Mus musculus. Put plainly: Cardiovascular toxicity in A1AR knock out C57BL/6 mouse assessed as change in body temperature at 5000 nmol/kg, po. The note with it: in vivo. The format is organism-based.
In data set [2] the test system is Mus musculus. Put plainly: Cardiovascular toxicity in C57BL/6 mouse assessed as change in body temperature at 5000 nmol/kg, po. The format is organism-based. Conditions: in vivo.
Data set [3] has as its system Mus musculus. Put plainly: Cardiovascular toxicity in A1AR knock out C57BL/6 mouse assessed as change in heart rate at 5000 nmol/kg, po. The format is organism-based. The note with it: in vivo.
In data set [4] the test system is Mus musculus. Put plainly: Cardiovascular toxicity in C57BL/6 mouse assessed as change in heart rate at 5000 nmol/kg, po. The note with it: in vivo. The format is organism-based.
Data set [5] has as its system Mus musculus. Put plainly: Antinociceptive effect in orally dosed C57BL/6 mouse assessed as inhibition of noxious thermal sensitivity by measuring paw withdrawal latency. The format is functional, organism-based.
Data set [6] concerns the target T1, Adenosine receptor A1 (Homo sapiens, UniProt P30542).
T1 sequence (P30542 whole entry): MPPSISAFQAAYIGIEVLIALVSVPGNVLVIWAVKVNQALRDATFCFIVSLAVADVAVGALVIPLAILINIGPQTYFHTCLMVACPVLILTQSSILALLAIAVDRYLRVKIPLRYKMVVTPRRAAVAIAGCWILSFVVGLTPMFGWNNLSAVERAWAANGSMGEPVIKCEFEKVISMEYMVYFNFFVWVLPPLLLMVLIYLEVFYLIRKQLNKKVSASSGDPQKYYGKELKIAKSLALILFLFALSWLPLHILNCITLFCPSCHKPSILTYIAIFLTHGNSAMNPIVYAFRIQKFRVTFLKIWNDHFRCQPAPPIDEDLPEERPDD
Put plainly: Agonist activity at human A1AR expressed in HEK293T/17 cells assessed as inhibition of forskolin-induced cAMP accumulation incubated for 10 mins by luciferase reporter assay. The format is functional, cell-based, HEK-293T.

The target of another data set is T2, Adenosine receptor A3 (Homo sapiens, UniProt P0DMS8).
T2 sequence (P0DMS8 whole entry): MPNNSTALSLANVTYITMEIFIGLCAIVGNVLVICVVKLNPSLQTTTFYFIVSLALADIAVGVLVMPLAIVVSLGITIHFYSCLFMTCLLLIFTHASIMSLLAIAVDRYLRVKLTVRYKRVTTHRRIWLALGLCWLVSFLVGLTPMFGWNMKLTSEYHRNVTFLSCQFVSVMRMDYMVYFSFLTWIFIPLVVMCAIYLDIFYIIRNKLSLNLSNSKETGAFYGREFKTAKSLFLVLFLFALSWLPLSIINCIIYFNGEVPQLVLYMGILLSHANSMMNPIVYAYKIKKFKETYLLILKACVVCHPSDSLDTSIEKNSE
The data set is described as follows: Displacement of [3H]2-chloro-N6-cyclopentyladenosine from human A3AR. A general note: Displacement assays read how much labelled ligand stays bound in the presence of the test substance.

For data set [7], the species on record is Homo sapiens. The data set is described as follows: Selectivity ratio of Ki for human A3AR to Ki for human A1AR.
Data set [8] concerns the target T3, Adenosine receptor A2b (Homo sapiens) (UniProt P29275).
T3 sequence (whole entry): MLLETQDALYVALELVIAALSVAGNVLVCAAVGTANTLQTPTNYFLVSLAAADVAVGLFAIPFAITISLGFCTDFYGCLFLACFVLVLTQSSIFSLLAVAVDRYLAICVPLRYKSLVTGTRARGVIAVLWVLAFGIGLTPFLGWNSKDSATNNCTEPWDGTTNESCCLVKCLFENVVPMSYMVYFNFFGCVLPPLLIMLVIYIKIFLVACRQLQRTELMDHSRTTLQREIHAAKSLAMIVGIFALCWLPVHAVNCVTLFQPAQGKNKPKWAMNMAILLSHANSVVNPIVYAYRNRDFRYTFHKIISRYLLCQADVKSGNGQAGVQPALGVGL
The data set is described as follows: Displacement of [3H]2-chloro-N6-cyclopentyladenosine from human A2BR at 10 uM.

Data set [9] addresses T1, Adenosine receptor A1. The data set is described as follows: Displacement of [3H]2-chloro-N6-cyclopentyladenosine from human A1AR.
The target of a further data set is Adenosine receptor A2a (Homo sapiens, UniProt P29274). Put plainly: Displacement of [3H]2-chloro-N6-cyclopentyladenosine from human A2AR.
For data set [10], the target named is T1, Adenosine receptor A1. Put plainly: Agonist activity at human A1AR expressed in HEK293T/17 cells assessed as inhibition of isoproterenol-induced cAMP accumulation incubated for 10 mins by luciferase reporter assay. The format is functional, cell-based, HEK-293T. In general terms: Changes in cAMP serve as a functional read-out for many G protein-coupled receptors.

For data set [11], the target named is T1, Adenosine receptor A1. The data set is described as follows: Agonist activity at human A1AR assessed as induction of Ca2+ ion mobilization by orthogonal functional assay.
Data set [12] concerns Mus musculus. Put plainly: Antinociceptive effect in intravenously dosed C57BL/6 mouse assessed as inhibition of noxious thermal sensitivity by measuring paw withdrawal latency. The format is functional, organism-based.
Data set [13] has as its system Mus musculus. The data set is described as follows: Antinociceptive effect in A1AR knock out C57BL/6 mouse assessed as inhibition of noxious thermal sensitivity by measuring paw withdrawal latency at 5 nmol/kg, it. The format is functional, organism-based.
Data set [14] addresses T3, Adenosine receptor A2b (Homo sapiens). Put plainly: Displacement of [3H]2-chloro-N6-cyclopentyladenosine from human A2BR at 50 uM.
The subject of data set [15] is Mus musculus. Put plainly: Antinociceptive effect in intrathecally dosed C57BL/6 mouse assessed as inhibition of noxious thermal sensitivity by measuring paw withdrawal latency. The format is functional, organism-based.
Data set [16] is filed under the species Homo sapiens. The data set is described as follows: Selectivity ratio of Ki for human A2AR to Ki for human A1AR.

SMILES strings stand for the structures. Activity calls are given as the source filed them. The calls are words filed in the database; no cut-off is given here.

Sequence of Adenosine receptor A2a (P29274 whole entry): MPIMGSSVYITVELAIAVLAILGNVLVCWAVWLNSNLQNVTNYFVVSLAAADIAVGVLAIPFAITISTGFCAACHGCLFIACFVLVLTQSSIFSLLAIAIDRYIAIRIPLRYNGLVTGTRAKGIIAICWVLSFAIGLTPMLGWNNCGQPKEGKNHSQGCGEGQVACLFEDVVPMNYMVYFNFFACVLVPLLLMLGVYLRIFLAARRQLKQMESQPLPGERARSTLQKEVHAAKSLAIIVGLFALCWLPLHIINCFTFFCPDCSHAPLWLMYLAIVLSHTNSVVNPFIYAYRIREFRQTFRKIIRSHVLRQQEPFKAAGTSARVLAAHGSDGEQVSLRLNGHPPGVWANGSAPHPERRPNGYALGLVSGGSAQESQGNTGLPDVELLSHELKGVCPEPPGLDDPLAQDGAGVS

With `OC[C@H]1O[C@@H](n2cnc3c(NC4CCCC4)ncnc32)[C@H](O)[C@@H]1O` [N6-CYCLOPENTYLADENOSINE], the Activity entry is “Non-toxic” in the data set on Mus musculus [1]; “Toxic” in the data set on Mus musculus [2]; “Non-toxic” in the data set on Mus musculus [3]; “Toxic” with Mus musculus [4]; “Dose-dependent effect” in the data set on Mus musculus [5].
Usually EC50 stands for the concentration giving half of the maximal effect. Regarding `O=P(O)(O)O[C@@H]1CCC[C@H]1Nc1nc(Cl)nc2c1ncn2[C@@H]1O[C@H](CO)[C@@H](O)[C@H]1O`, on Adenosine receptor A1 [6], the EC50 worked out at 120 nM.
For orientation: Ki means the dissociation constant of the complex between target and ligand, obtained from inhibition or displacement. Read a high Ki as weaker binding. For orientation: inhibition means the relative decrease from the control value, in per cent. Low values mean little suppression, high ones strong suppression. Regarding `O=P(O)(O)OC[C@H]1O[C@@H](n2cnc3c(NC4CCCC4)nc(Cl)nc32)[C@H](O)[C@@H]1O`, the figures for the Ki at Adenosine receptor A3, on Adenosine receptor A1 [9] and at Adenosine receptor A2a were 1300 nM, 25 nM and 1600 nM, respectively. Besides, in the data set listed under Homo sapiens [7], the Ratio Ki came out at 52. Besides, the inhibition in [8] worked out at 0%. Also, the values for the EC50 on Adenosine receptor A1 [10] and on Adenosine receptor A1 [11] were 72 nM and 21 nM, respectively.
For the compound `OCC(Cc1ccccc1)Nc1nc(Cl)nc2c1ncn2[C@@H]1O[C@H](CO)[C@@H](O)[C@H]1O` (mixture of isomers), the 50% effective concentration (EC50) on Adenosine receptor A1 [10] came to 550 nM.
On the same count and under the same terms, in the case of `CCOP(=O)(OCC)OC[C@H]1O[C@@H](n2cnc3c(NC4CCCC4)nc(Cl)nc32)[C@H](O)[C@@H]1O` it was more than 10000 nM.
`OC[C@H]1O[C@@H](n2cnc3c(N[C@H]4CCC[C@@H]4O)ncnc32)[C@H](O)[C@@H]1O` [GR-79236]: at Adenosine receptor A1 [6], the EC50 stood at 5.9 nM.
With `O=P(O)(O)OCC(Cc1ccccc1)Nc1nc(Cl)nc2c1ncn2[C@@H]1O[C@H](CO)[C@@H](O)[C@H]1O` (mixture of isomers), the EC50 at Adenosine receptor A1 [10] amounted to 1500 nM.
As to `O=P(O)(O)OC[C@H]1O[C@@H](n2cnc3c(NC4CCCC4)ncnc32)[C@H](O)[C@@H]1O`, the concentration giving a half-maximal response (EC50) at Adenosine receptor A1 [10] amounted to 100 nM.
As for `Nc1ncnc2c1ncn2[C@@H]1O[C@H](CO)[C@@H](O)[C@H]1OP(=O)(O)O`, the 50% effective concentration (EC50) on Adenosine receptor A1 [10] was 490 nM.
Regarding `O=P(OCCc1ccccc1)(OCCc1ccccc1)OC[C@H]1O[C@@H](n2cnc3c(NC4CCCC4)nc(Cl)nc32)[C@H](O)[C@@H]1O`, the EC50 at Adenosine receptor A1 [10] was found to be 6100 nM.
The same measure, in the same setting: under `COP(=O)(OC)OCC(Cc1ccccc1)Nc1nc(Cl)nc2c1ncn2[C@@H]1O[C@H](CO)[C@@H](O)[C@H]1O` (mixture of isomers) stands 5400 nM.
Still for that read-out and setting: in the case of `Nc1ncnc2c1ncn2[C@@H]1O[C@H](CO)[C@@H](OP(=O)(O)O)[C@H]1O` it was 440 nM.
`Nc1ncnc2c1ncn2[C@@H]1O[C@H](COP(=O)(O)O)[C@@H](O)[C@H]1O` [ADENOSINE PHOSPHATE]: at Adenosine receptor A1 [10], the 50% effective concentration (EC50) was found to be 500 nM.
`COP(=O)(OC)O[C@@H]1CCC[C@H]1Nc1nc(Cl)nc2c1ncn2[C@@H]1O[C@H](CO)[C@@H](O)[C@H]1O`: on Adenosine receptor A1 [6], the EC50 is more than 10000 nM.
Regarding `CCOC(=O)CNP(=O)(NCC(=O)OCC)OC[C@H]1O[C@@H](n2cnc3c(NC4CCCC4)nc(Cl)nc32)[C@H](O)[C@@H]1O`, the 50% effective concentration (EC50) on Adenosine receptor A1 [10] was found to be 530 nM.
As for `COP(=O)(OC)OC[C@H]1O[C@@H](n2cnc3c(NC4CCCC4)nc(Cl)nc32)[C@H](O)[C@@H]1O`, the Activity entry with Mus musculus [12] was “Dose-dependent effect”; with Mus musculus [1], “Non-toxic”; with Mus musculus [2], “Non-toxic”; with Mus musculus [3], “Non-toxic”; in the data set with Mus musculus [4], “Non-toxic”; in the data set with Mus musculus [15] it was “Dose-dependent effect”. Also, in the data set on Mus musculus [5], the Activity entry was “Dose-dependent effect”. Further, the Ki stood at 450 nM at Adenosine receptor A3, 36 nM on Adenosine receptor A1 [9] and 4700 nM on Adenosine receptor A2a. The outcome in the data set on Mus musculus [13] was inactive. Besides, in data set [14], the inhibition was determined as 7%. For the same compound, the Ratio Ki in the data set filed under Homo sapiens [7] came out at 12; in the data set listed under Homo sapiens [16] it was 130. The EC50 amounted to 1400 nM on Adenosine receptor A1 [10] and 520 nM on Adenosine receptor A1 [11].
Regarding `COP(=O)(OC)OC[C@H]1O[C@@H](n2cnc3c(NC4CCCC4)ncnc32)[C@H](O)[C@@H]1O`, the half-maximal effective concentration (EC50) on Adenosine receptor A1 [10] is 4400 nM.

(Values after ChEMBL document CHEMBL2163273, “Orally active adenosine A(1) receptor agonists with antinociceptive effects in mice” (J Med Chem, 2012).)
